Test [1] relates to chemo-radiation induced oral mucositis. Kind of test: Chemo-radiation induced oral mucositis (CRIOM), Example 48. In kind it is in vivo, mice. The procedure: Mice (7-9 weeks, Balb/[…]) were administered intraperitoneally 5-FU (100 mg/kg, Sigma Aldrich). After 1 hr, mice head received 20 Gy using x-ray irradiatior (X-RAD 320, 1.8 Gy/min). Custom-made lead shields were used for mice to limit the radiation to the heads. PLAG (Enzychem Lifesciences Co.) was administered orally with 250 mg/kg once daily. The experimental design of the study was represented in schematic design. […] Toluidine blue stains ribonucleotides and detect inflammatory tissues.

Test [2] deals with radiation-induced lung injury. Description: Radiation-induced lung injury in mice. In kind it is in vivo. Here is the method:
Balb/c mice were grouped into four groups: 1) control group, 2) radiation group, 3) radiation+EC-18 50 mg/kg of PLAG, and 4) radiation+EC-18 250 mg/kg of PLAG. Lung was extracted at day 3 after 6.11Gy of TBI by γ-ray (FIG. 37A). EC-18 was treated daily. Tissue was fixed with formaldehyde, and H&E staining was carried out.

In another test the test system is SR-A silenced cells. Description: Phagocytosis and ROS in SR-A silenced cells. In kind it is cell-based.
The subject of test [3] is TLR4/MD2 on the surface of Raw264.7 cells. Kind of test: LPS-induced TLR4/MD2 internalization, confocal microscopy. In kind it is cell-based. Conditions: LPS/PLH compared to LPS treated cells. Here is the method:
Raw264.7 cells were divided into two groups: 1) LPS treated group and 2) LPS/PLAG treated group. For LPS treated group, cells were stimulated with LPS (100 ng/ml) for 0, 15, 30, 45, 60, 75, 90, 105, 120 minutes. For LPS/PLAG treatment, cells were pre-incubated with PLAG (100 μg/ml) for 1 hour and then stimulated with LPS (100 ng/ml) for 0, 15, 30, 45, 60, 75, 90, 105, 120 minutes. To detect TLR4/MD2 on the membrane surface, cells were fixed with 2% paraformaldehyde (Sigma-Aldrich) and were blocked with PBS containing 1% BSA (Gibco, Waltham, Mass., USA). They were incubated with rabbit anti-TLR4/MD2 antibody (Thermo) and Alexa488 conjugated anti-rabbit IgG (Invitrogen). For confocal microscopy analysis, cells were washed with PBS and mounted in DAPI-containing fluorescence microscopy mounting medium (Invitrogen). Samples were analyzed with a laser scanning confocal microscope (Carl Zeiss, Oberkochen, Germany).
Raw264.7 cells were divided into two groups: 1) LPS treated group and 2) LPS/PLAG treated group. […] These were analyzed by confocal microscopy. […]
To detect TLR4/MD2 on the membrane surface, cells were fixed with 2% paraformaldehyde (Sigma-Aldrich) and were blocked with PBS containing 1% BSA (Gibco, Waltham, Mass., USA). […] For confocal microscopy analysis, cells were washed with PBS and mounted in DAPI-containing fluorescence microscopy mounting medium (Invitrogen). […]

Two molecules from patent US20220339135A1, “COMPOSITIONS AND METHODS FOR MODULATING AN INFLAMMATORY RESPONSE” (Enzychem Lifesciences Corporation, priority 2019, published 2022) can be followed below.

As for `CCCCC/C=C\C/C=C\CCCCCCCC(=O)OC(COC(C)=O)COC(=O)CCCCCCCCCCCCCCC` (racemic) [PLAG, 1-palmitoyl-2-linoleoyl-3-acetylglycerol], the “mucositis and ulcer in tongues” value in test [1] (PLAG 250 mg/kg once daily, day 9) is “no mucositis and ulcer”. Further, the “mice tongues stained with toluidine blue” value in test [1] (PLAG treated group n=8, day 9) is on record as “one out of eight”. In addition, the pulmonary capillary leakage result in test [2] (6.11Gy TBI, day 3, dose-dependently) is given as “less pulmonary capillary leakage”. In addition, the “leakage erythrocyte at the interstitial tissue” value in test [2] (PLAG 50mpk and 250mpk) was “not observed”. Moreover, the “PAMP molecules-induced intracellular ROS” value with SR-A silenced cells (SR-A silenced cells) is recorded as “does not increase”. For the same molecule, the “enhanced phagocytosis by PLAG” value with SR-A silenced cells (knockdown of SR-A) is listed as “does not show the enhanced phagocytosis”.
As for `CCCCC/C=C\C/C=C\CCCCCCCC(=O)OC(CO)COC(=O)CCCCCCCCCCCCCCC` (stereo not shown) [PLH, palmitic linoleic hydroxyl glycerol, reference compound], the “effect on TLR4/MD2 internalization and return to the surface” value in test [3] is “had no effect”.
